Read-outs that look alike come from different tables or passages of the source. Marks after values point to notes of the source that are not given here.
Experiments:
NSCLC cells [1] = conditions: cited from earlier work
NSCLC cells [2] = conditions: cited from earlier work; remark: listed apart in the source
A549 [3] = conditions: A549, KRAS-mutant NSCLC cell line; cited from earlier work
[4] = tested on: snail-transduced primary human mammary epithelial cells (HEMCs); conditions: 24-72 hrs treatment; cited from earlier work
A549GLR = test: cells
From the text: (§1) Cell lines and reagents. The NSCLC cell lines A549 and H460 were purchased from American Type Culture Collection (ATCC).
(§2) Cell viability assay. […] Experiments were repeated independently three times.
(§3) Statistical analyses. […] One-way ANOVA was used to determine the difference in the analytical results of flow cytometry, qRT-PCR, Western bot, wound healing assay, anchorage-independent growth assay, transwell invasion assay, and Bio-Plex multiplex immunoassay among groups followed by a Fisher's LSD test. Differences with p<0.05 were considered statistically significant.

A549GR = test: cells
From the text: as §1, §2, §3

A549 [5] = test: cells
From the text: as §1, §2, §3

H460 = test: MTT cell viability assay in H460; conditions: 0.5 nM LMB
From the text: as §1, §2, §3

A549 [6] = test: Analysis of cell cycle by flow cytometry in A549; type: cell-based, human; conditions: 48 hrs
From the text: Analysis of cell cycle by flow cytometry. […] Each sample was run in triplicate and each experiment was repeated three times.

A549 [7] = test: Western blot of EGFR signaling and survival pathways in A549; type: cell-based, human
Procedure: Western blot analyses. […] Relative densitometric digital analysis for bands of targeted proteins was determined using Image J and normalized by the intensity of the housekeeping gene, α-tubulin.

A549 [8] = conditions: A549 (p53 wide type), 48 hrs; read-out: LMB IC50; cited from earlier work
H522 = H522 (p53-mutant); read-out: LMB IC50; cited from earlier work
H358 = H358 (p53 null); read-out: LMB IC50; cited from earlier work
[9] = single therapeutic agent; cited from earlier work
[10] = tested on: NSCLC cell lines (A549, H522, and H358) and BEAS-2B; conditions: A549, H522, H358 vs BEAS-2B; cited from earlier work
[11] = Homo sapiens, A549, read-out: IC50 of afatinib
[12] = 12 μM gefitinib (alone or + 0.5 nM LMB)
[13] = 24 μM gefitinib (alone or + 0.5 nM LMB)

## COc1cc(-c2ncn(/C=C\C(=O)OC(C)C)n2)cc(C(F)(F)F)c1 [KPT-185]
NSCLC cells [1]
  Synergistic cytotoxic effects with EGFR TKIs: no synergistic cytotoxic effects
NSCLC cells [2]
  Cell cycle arrest: arrested NSCLC cells in the G1 phase
A549 [3]
  Response of A549 to treatment: not responsive
[4]
  Effect on EMT: reverse EMT

## CN(C)C/C=C/C(=O)Nc1cc2c(Nc3ccc(F)c(Cl)c3)ncnc2cc1O[C@H]1CCOC1 [afatinib]
A549GLR; [11]
  IC50: 8 ± 1.5 µM
A549GR; [11]
  IC50: 20 ± 2.7 µM
A549 [5]; [11]
  IC50: 6 ± 1.2 µM

## O=C(/C=C\n1cnc(-c2cc(C(F)(F)F)cc(C(F)(F)F)c2)n1)NNc1cnccn1 [KPT-330, Selinexor]
A549 [3]
  Response of A549 to treatment: not responsive
[4]
  Effect on EMT: reverse EMT

## CCC(=C/[C@H](C)C/C=C/C(C)=C/[C@@H](C)C(=O)[C@@H](C)[C@H](O)[C@@H](C)C/C(C)=C/C(=O)O)/C=C/[C@@H]1OC(=O)C=C[C@@H]1C [LMB, Leptomycin B]
A549GLR
  Cytotoxic effect (cell viability): 88±5 % of control
A549GR
  Cytotoxic effect (cell viability): 96±3 % of control
A549 [5]
  Cytotoxic effect (cell viability): 89±4 % of control
H460
  Cytotoxic effect (cell viability): 92±5 % of control
A549 [6]; 0.5 nM LMB alone
  Cell cycle (%) G0/G1: 57.9 ± 3.1 ^b %
  Cell cycle (%) G2/M: 24.4 ± 0.6 ^b %
  Cell cycle (%) Pre-G1: 13.5 ± 2.7 ^b %
  Cell cycle (%) S: 3.6 ± 1.2 ^b %
A549 [7]; 0.5 nM LMB alone, 48 hrs, A549, control 100.0±0
  Relative protein expression level of Akt: 86±2
A549 [7]; A549, 48 hrs, LMB vs control, gefitinib+LMB vs gefitinib alone
  p21 expression: dramatically increased
A549 [8]
  IC50: 0.0131 µM
H522
  IC50: 0.0057 µM
H358
  IC50: 0.0005 µM
[9]
  Toxicities in phase I trial: gastrointestinal toxicities like malaise and anorexia
[4]
  Effect on EMT: reverse EMT
[10]
  Cell growth inhibition, cancer vs normal cells: remarkable cell growth inhibition in NSCLC cell lines (A549, H522, and H358) but not normal human lung epithelial cells (BEAS-2B)

## COc1cc2ncnc(Nc3ccc(F)c(Cl)c3)c2cc1OCCCN1CCOCC1 [gefitinib]
A549 [6]; [12]
  Cell cycle (%) G0/G1: 68.0 ± 2.9 ^a %
  Cell cycle (%) G2/M: 19.9 ± 2.2 ^a %
  Cell cycle (%) Pre-G1: 2.1 ± 0.4 ^a %
  Cell cycle (%) S: 9.7 ± 2.4 ^a %
A549 [6]; [13]
  Cell cycle (%) G0/G1: 84.0 ± 0.9 ^b %
  Cell cycle (%) G2/M: 7.9 ± 0.6 ^b %
  Cell cycle (%) Pre-G1: 4.0 ± 1.3 ^b %
  Cell cycle (%) S: 3.4 ± 0.3 ^b %

Source: patent US11266624B2, “CRM1 inhibitors reduce primary and acquired resistance of EGFR inhibitors in lung cancer cells” (Texas Tech University System, priority 2018, dated 2022)
